These are literature values, as cited in US20040202693A1, “Pharmaceutical compositions releasing their active agents from a buccal or sublingual location to overcome an absorption window problem” (priority 2003, published 2004).

Where two headings read alike, the source gives them in different places.

For data set [1] the following is noted: oral administration in conventional dosage forms, upper portion of the gastrointestinal tract.

For `C[C@H]1c2cccc(O)c2C(=O)C2=C(O)[C@]3(O)C(=O)C(C(N)=O)=C(O)[C@@H](N(C)C)[C@@H]3[C@@H](O)[C@@H]21` [Doxycycline], the absorption entry in data set [1] is “rapidly and almost completely absorbed”.

As for `O=C(O[C@H]1C[C@H]2CC[C@@H](C1)[N+]21CCCC1)C(O)(c1ccccc1)c1ccccc1` [Trospium chloride], the bioavailability entry runs as follows: (after oral administration) “approximately 10%”; (enteric-coated formulation) “significant decrease of bioavailability”. Moreover, where the note is “after rectal administration”, the absorption entry is “almost no absorption at all”.
